Reference: patent publication US5028411A, “Pharmaceutical compositions” (priority 1984, dated 1991)
Like-named read-outs stand apart in the source and are kept apart here.

Experiments:
[1] = Description: (§1) In order to solubilise iron(III) hydroxide, log Ksol must be greater than 0.
[2] = Affinity of maltol for copper (II), zinc (II), calcium and magnesium; format: physicochemical; settings: compared with iron
Description: as §1

[3] = remark: listed apart in the source
Description: An indication of the properties of a compound in this respect is provided by the value of the partition coefficient (Kpart) obtained on partition between n-octanol and Tris hydrochloride (20 mM, pH 7.4; Tris representing 2-amino-2-hydroxymethylpropane 1,3-diol) at 20° C. and expressed as the ratio (concentration of compound in organic phase)/(concentration of compound in aqueous phase).
Acid washed glassware is used throughout and, following mixing for 1 minute, the aqueous/n-octanol mixture is centrifuged at 1000 g for 30 seconds. The two resulting phases are separated for a concentration determination by spectrophotometry on each.

[4] = In vivo test of action of iron compounds in the rat (59Fe into duodenum)
Description: Groups of rats (300-350 g) were anaesthetised with nembutal (0.25 ml) and then with ether. A mid-line incision was made and the ^59 Fe labelled sample (100 μg Fe, 10 μCi) was passed into the lumen of the duodenum via a small incision. The abdominal well was then closed with a suture. The animals were sacrificed 1, 2, 4 and 6 hours after the administration of the compound and the various organs were monitored for their ^59 Fe content. […] In the case of the data for blood and sternum (bone marrow) the counts given are cpm/ml and cpm/g respectively, whilst in all other cases they are the total cpm counts.

[5] = Metabolism of free hydroxypyrone
[6] = format: in vivo, cat
Description: (§2) Cats were anaesthetised with chloralase (60 mg/kg) and pentobarbitone sodium (60 mg/kg) (i.p.), having been kept free of food for 18 hours. In each animal the trachea was cannulated to maintain a clear airway and to allow positive pressure artificial respiration if necessary. The left femoral vien was cannulated for the intravenous administration of drugs and physiological saline solution. Arterial blood pressure was monitored by a Washington pressure transducer through a cannula inserted into the femoral artery of the right hind leg. Arterial blood samples were taken at appropriate intervals from a short cannula inserted into an external carotid artery. Body temperature was monitored with a rectal thermometer. Each animal was given heparin (1000 iu/kg) as anticoagulant and additional small amounts of pentabarbitone sodium if needed to maintain a satisfactory level of anaesthesia.
The apparent volume of distribution of the compound was calculated by extrapolation of the log-linear blood concentration curve to zero.
The amount of ^59 Fe administered in this experiment was 4 μCi of 2.2×10^6 cpm.

[7] = In vivo cat, duodenal: 59Fe blood level and tissue distribution
Description: as §2
In those animals where the iron compounds were to be administered into the duodenum, a mid-line incision was made in the abdomen to reveal the intestines. A cannula was then inserted through a small cut such that its tip rested approximately 5 cm below the opening of the bile duct. The cannula was then sutured in place and the abdominal wall closed with stitches.
The distribution of ^59 Fe in the tissues of the animal after the same duodenal experiment to which FIG. 7 relates were investigated and the typical results are shown in Table 7. The amount of ^59 Fe administered in this experiment was 10 μCi or 5.327×10^6 cpm into a 2.9 kg cat. It will be seen that the distribution of the ^59 Fe after 4 hours was similar to that after intravenous infusion, with low levels in the kidney and urine and high levels in both the spleen and bone marrow.
The distribution of ^59 Fe in the tissues of the animal after the same duodenal experiment were investigated and the typical results are shown in Table 8. The amount of ^59 Fe administered in this experiment was 10 μCi or 2.65×10^6 cpm into a 2.9 kg cat. It will be seen that, although some ^59 Fe entered the tissues, rather low levels were detected in the spleen and bone marrow (sternum) whereas a large proportion of the dose was located in the urine.

rat jejunal sac [8] = experiment: In vitro permeation of rat jejunal sac by iron complexes
Description: Rats (male Sprague Dawley, 60 g) were killed and the jejunum removed, everted and cut into three segments (4 cm length). The segments were tied at both ends, filled with Krebs Ringer buffer (0.2 ml) and incubated in Krebs Ringer buffer containing the appropriate ^59 Fe compound at 37° C. for periods up to 90 minutes. The contents of the sac were counted for ^59 Fe and measured spectrophotometrically.

apotransferrin = experiment: Exchange of iron(III) between complex and apotransferrin
Description: as §1

haemoglobin = experiment: Binding to haemoglobin by gel permeation elution profile of 59Fe; settings: 1 mM complex, NaCl 130 mM, pH 7.4, PD-10 column
[9] = tested on: bovine serum albumen (BSA); experiment: Binding to bovine serum albumen (BSA); settings: column procedure as for haemoglobin
human erythrocytes = format: in vitro ADME; settings: not told
Description: Following this period of incubation an aliquot of the erythrocyte/medium mixture was placed above a layer of silicone oil (.rho.=1.06) and the erythrocytes separated by centrifugation through the oil. The ^59 Fe levels associated with the erythrocytes and the incubation medium were then counted and presented as a distribution ratio (concentration in erythrocytes/concentration in medium).

erythrocyte ghosts = format: binding, human
Description: Experiments to determine the percentage of ^59 Fe associated with erthrocyte ghosts after lysis confirm this hypothesis. In one experiment, lysis was initiated by a small volume of 10% v/v Triton X100 and in a second experiment by a 10 fold excess of water. […] Such binding is of course undesirable as the complex is likely to remain tightly bound to the membrane by electrostatic interactions and not be transmitted across it.

rat jejunal sac [10] = format: in vitro ADME, rat (male Sprague Dawley)
Description: The procedure described above was used to compare the uptake of iron from buffer containing differing molar proportions of maltol:iron.

[11] = iron EDTA duodenal, 2.65×10^6 cpm
[12] = relative to ferric chloride as 1, 37° C.
[13] = n-octanol/tris hcl, 100 µM, pH 7.4

With `Cc1occc(=O)c1O` [maltol, 3-hydroxy-2-methyl-4-pyrone] the “affinity for iron (log β3)” value [1] was 30, the “affinity for copper (II), zinc (II), calcium and magnesium” value [2] was “lower affinity” and the “partition coefficient Kpart (concentration in n-octanol/concentration in aqueous phase)” value ([3]; n-octanol/Tris hydrochloride 20 mM, pH 7.4, 10^-4 M, spectrophotometry) was 0.66. The “deposition of iron in the bone marrow over time” value ([4]; 6 hour period) was “continuously throughout the 6 hour period at an apparently constant rate” and the metabolism [5] was “rapidly metabolized”.

For `O=C([O-])CN(CCN(CC(=O)[O-])CC(=O)[O-])CC(=O)[O-].[Fe+3]` [Iron EDTA], the “59Fe levels in the intestine wall and blood” value ([4]; 100 μg Fe) was “extremely low”, the “iron transfer to / 59Fe levels in bone marrow and spleen” value ([4]; 100 μg Fe, compared with maltol complex) was “reduced rates” and the “59Fe in gut washings” value ([4]; 100 μg Fe, non-absorbed iron) was “remain high for 4 hours”. For the same compound, the “dose located in the urine” value ([6]; cat, in vivo, iv) was “over 50%”, the “rate constant of the elimination from the blood of the linear phase” value ([6]; cat, in vivo, iv) was 0.023 min⁻¹ and the “Net 59Fe content, Heart” value ([6]; in vivo, iv) was 209 cpm/g. For the same compound, the “Net 59Fe content, Kidney” value ([6]; in vivo, iv) was 1,134 cpm/g, the “Net 59Fe content, Liver” value ([6]; in vivo, iv) was 261 cpm/g and the “Net 59Fe content, Spleen” value ([6]; in vivo, iv) was 162 cpm/g. For the same compound, the “Net 59Fe content, Sternum (bone marrow)” value ([6]; in vivo, iv) was 1,164 cpm/g, the “Net 59Fe content, Urine” value ([6]; in vivo, iv) was 62,156 cpm/g and the “Net total 59Fe content, Heart” value ([6]; in vivo, iv) was 3,248 cpm. The “Net total 59Fe content, Kidney” value ([6]; in vivo, iv) was 21,770 cpm, the “Net total 59Fe content, Liver” value ([6]; in vivo, iv) was 19,600 cpm and the “Net total 59Fe content, Spleen” value ([6]; in vivo, iv) was 1,814 cpm. For the same compound, the “Net total 59Fe content, Urine” value ([6]; in vivo, iv) was 1,180,900 cpm, the “kinetics of loss of radioactivity from blood” value ([6]; in vivo, iv) was “at least a two-component process” and the “Net 59Fe content, Skeletal muscle” value ([6]; iron EDTA i.v., adjusted to 2.2×10^6 cpm) was 95 cpm/g. For the same compound, the “plasma levels of radioactivity” value ([7]; duodenal) was “hardly exceeded the background level”, the “Net 59Fe content, Heart” value [7, 11] was 188 cpm/g and the “Net 59Fe content, Kidney” value [7, 11] was 1,762 cpm/g. The “Net 59Fe content, Liver” value [7, 11] was 499 cpm/g, the “Net 59Fe content, Skeletal muscle” value [7, 11] was 117 cpm/g and the “Net 59Fe content, Spleen” value [7, 11] was 200 cpm/g. For the same compound, the “Net 59Fe content, Sternum (bone marrow)” value [7, 11] was 917 cpm/g, the “Net 59Fe content, Urine” value [7, 11] was 36,306 cpm/g and the “Net total 59Fe content, Heart” value [7, 11] was 2,878 cpm. The “Net total 59Fe content, Kidney” value [7, 11] was 19,913 cpm, the “Net total 59Fe content, Liver” value [7, 11] was 29,574 cpm and the “Net total 59Fe content, Spleen” value [7, 11] was 880 cpm. The “Net total 59Fe content, Urine” value [7, 11] was 544,596 cpm.

In the case of iron(II) gluconate [Fe^II gluconate], the “Relative iron uptake, 15 minutes” value (rat jejunal sac [8]) is reported as 1.6 and the “Relative iron uptake, 60 minutes” value (rat jejunal sac [8]) is reported as 0.8.

In the case of `O=C([O-])/C=C/C(=O)[O-].[Fe+2]` [Fe^II fumarate], the “Relative iron uptake, 15 minutes” value (rat jejunal sac [8]) is reported as 4.0 and the “Relative iron uptake, 60 minutes” value (rat jejunal sac [8]) is reported as 1.8.

For `O=C([O-])CCC(=O)[O-].[Fe+2]` [Fe^II succinate], the “Relative iron uptake, 15 minutes” value (rat jejunal sac [8]) was 2.0 and the “Relative iron uptake, 60 minutes” value (rat jejunal sac [8]) was 1.0.

With `[Cl][Fe]([Cl])[Cl]` [FeCl3, ferric chloride] the “Relative iron uptake, 15 minutes” value (rat jejunal sac [8]; [12]) was 1 and the “Relative iron uptake, 60 minutes” value (rat jejunal sac [8]; [12]) was 1.

With `O=C([O-])CC(O)(CC(=O)[O-])C(=O)[O-].[Fe+3]` [Fe^III citrate] the “Relative iron uptake, 15 minutes” value (rat jejunal sac [8]) was 2.0 and the “Relative iron uptake, 60 minutes” value (rat jejunal sac [8]) was 1.8.

For `O=S(=O)([O-])[O-].[Fe+2]` [Fe^II sulphate, iron(II) sulphate], the “Relative iron uptake, 15 minutes” value (rat jejunal sac [8]) was 2.4 and the “Relative iron uptake, 60 minutes” value (rat jejunal sac [8]) was 1.4.

With iron(III) ascorbate [Fe^III ascorbate] the “partition coefficient Kpart (concentration in n-octanol/concentration in aqueous phase)” value [3, 13] was 0.0015, the “Relative iron uptake, 15 minutes” value (rat jejunal sac [8]) was 0.4 and the “Relative iron uptake, 60 minutes” value (rat jejunal sac [8]) was 0.8.

With `Cc1occc(=O)c1[O-].Cc1occc(=O)c1[O-].Cc1occc(=O)c1[O-].[Fe+3]` [Iron maltol] the thermodynamic stability constant [1] was 30, the “lability of the complex” value (apotransferrin) was “extremely labile” and the “partition coefficient Kpart (concentration in n-octanol/concentration in aqueous phase)” value [3, 13] was 0.50. The binding to haemoglobin (haemoglobin) was “no evidence is found for binding”, the “binding to bovine serum albumen” value [9] was “little ability to bind to BSA” and the “time for erythrocyte uptake to reach equilibrium” value (human erythrocytes) was “about 15 minutes”. For the same compound, the “Iron associated with ghosts, Hypotonic lysis” value (erythrocyte ghosts) was less than 5%, the “Iron associated with ghosts, Triton lysis” value (erythrocyte ghosts) was less than 1% and the “Relative iron uptake, 15 minutes” value (rat jejunal sac [8]) was 40. The “Relative iron uptake, 60 minutes” value (rat jejunal sac [8]) was 5.8, the “concentration range over which uptake increased linearly” value (rat jejunal sac [8]) was 500 to 10000 µM and the “period over which uptake was linear” value (rat jejunal sac [8]) was 90 min. The “Iron uptake into serosal contents of the sac” value (rat jejunal sac [10]) was 30.0 n mole, the “proportion of total iron present as 3:1 complex” value (rat jejunal sac [10]; at 2:1 ratio of maltol:iron) was 13% and the “59Fe directed to the bone marrow” value ([6]; cat, in vivo, iv) was “approximately 90%”. For the same compound, the “dose located in combined tissue of heart, liver and spleen” value ([6]; cat, in vivo, iv) was “approximately 10%”, the “dose located in the urine” value ([6]; cat, in vivo, iv) was “less than 0.2%” and the “Net 59Fe content, Heart” value ([6]; in vivo, iv) was 490 cpm/g. For the same compound, the “Net 59Fe content, Kidney” value ([6]; in vivo, iv) was 546 cpm/g, the “Net 59Fe content, Liver” value ([6]; in vivo, iv) was 510 cpm/g and the “Net 59Fe content, Skeletal muscle” value ([6]; in vivo, iv) was 0 cpm/g. For the same compound, the “Net 59Fe content, Spleen” value ([6]; in vivo, iv) was 14,890 cpm/g, the “Net 59Fe content, Sternum (bone marrow)” value ([6]; in vivo, iv) was 3,200 cpm/g and the “Net 59Fe content, Urine” value ([6]; in vivo, iv) was 152 cpm/g. The “Net total 59Fe content, Heart” value ([6]; in vivo, iv) was 7,056 cpm, the “Net total 59Fe content, Kidney” value ([6]; in vivo, iv) was 6,661 cpm and the “Net total 59Fe content, Liver” value ([6]; in vivo, iv) was 53,550 cpm. For the same compound, the “Net total 59Fe content, Skeletal muscle” value ([6]; in vivo, iv) was 0 cpm, the “Net total 59Fe content, Spleen” value ([6]; in vivo, iv) was 125,076 cpm and the “Net total 59Fe content, Urine” value ([6]; in vivo, iv) was < 3,000 cpm. For the same compound, the “apparent volume of distribution” value ([6]; in vivo, iv) was “a value between that of the total extracellular space of the animal and the blood volume”.
